Test results as given in PubChem BioAssay AID2384 (Southern Research Specialized Biocontainment Screening …, 2010).
Values joined by “and” are separate entries in the source; they are usually repeats but may differ in a detail not shown here. Identical values can stand only once.

Tested on: S. typhi GFP reporter counter-screen, fluorescence, 4 h
Test: inhibitors in S. typhi counter-screen strain, dose response, counter-screen for PhoP regulon inhibitor project, fluorescence, 4 h (AID 2384)

Compound | IC50
COc1ccc(C(=O)NC(=S)NNC(=O)c2cnccn2)cc1 | 47.1 µM
O=C(C[n+]1cc(-c2ccc(Cl)cc2)n2c1CCC2)Nc1nc(-c2ccccc2)cs1 | 20.1 µM
O=c1ccc2cc3c([nH]c4ccc(Br)cc43)oc-2c1O | 18.2 µM
O=C(OCC(=O)N1CCOCC1)c1ccc[nH]c1=O | 10.9 µM
OC1CCCN(Cc2ccc3ccc4cccc5ccc2c3c45)C1 (stereo not drawn) | 59.9 µM
CCN(CC)c1ccc(CNc2nc3ccccc3n2CCN2CCCCC2)cc1 | 43.5 µM
O=C(CCN1CCOCC1)c1ccc(Br)cc1 | 72.5 µM
Nc1c(Cl)ncnc1N/N=C/c1ccccn1 | 32.9 µM
[O-][n+]1cccc2c(Br)cc(Br)c(O)c21 | 36.6 µM
O=C(CCc1ccccc1)NNC(=O)c1ccccn1 | 57.8 µM
O=C(Oc1c(Cl)cc(Cl)c2cccnc12)c1ccco1 | 15.6 µM
O=C(c1cccs1)c1no[n+]([O-])c1C(=O)c1cccs1 | 39.8 µM
CCCCCCCCCCOC(=O)Cn1c(COc2cccc(OC)c2)[n+](C)c2ccccc21 | 10.2 µM
COc1ccc2sc(N(CCCN(C)C)C(=O)c3ccc(S(=O)(=O)N4CCc5ccccc5C4)cc3)nc2c1 | 122 µM
O=C1c2c(O)ccc(O)c2C(=O)c2c(NCCNCCO)ccc(NCCNCCO)c21 | 86.5 µM
O=C(C[n+]1ccccc1)c1ccc(-c2ccccc2)cc1 | 123 µM
O=C(N/N=C/c1cc(O)ccc1Br)c1cccnc1 | 69.4 µM
CCCCCN=C(N)N/N=C/c1c[nH]c2ccc(OC)cc12 | 26.9 µM
CCN(CC)c1ccc(CNc2nc3ccccc3n2C)cc1 | 81.6 µM
COc1ccccc1NC(=O)CN1CCC(c2nc3ccc(C)cc3[nH]2)CC1 | 143 µM
CN1CCN(/N=C/c2c3ccccc3c(Cl)c3ccccc23)CC1 | 73.5 µM
CNCc1c(OCc2ccccc2F)ccc2ccccc12 | 37.2 µM
CCCCCCCCCCCCCCCC[N+](C)(C)C | 19.3 µM

Compound | IC50
O=C(CCNC(=O)c1ccco1)Nc1ccc(SC(F)F)cc1 | 93.7 µM
NC1=NC[C@H](Cc2ccc(O)cc2)N1CCC12CC3CC(CC(C3)C1)C2 | 37.7 µM
N=c1n(Cc2ccc(Cl)cc2)c2ccccc2n1CC(O)COc1ccccc1 (stereo not drawn) | 36.6 µM
Oc1ccc(CN2CCN(Cc3ccccc3)CC2)c2cccnc12 | 25.7 µM
Cc1cc(C)n(/N=C/c2cc([N+](=O)[O-])ccc2O)c(=O)c1 | 39.5 µM
O=C1OCC(CO)(CO)N=C1NNc1ccc(Cl)c(Cl)c1 | 144 µM
Cn1ncnc2c(=O)n(C)c(=O)nc1-2 | 2.53 µM
Cc1ccc(C[n+]2c(-c3ccc(C)cc3)cc(-c3ccc(C)cc3)cc2-c2ccc(C)cc2)cc1 | 15.6 µM
O=C(Oc1ccccc1)c1cc2ccccc2o1 | 97 µM
CCC[C@H](CN[C@@H](CNC)[C@H](C)CC)NCCc1cc(C(F)(F)F)cc(C(F)(F)F)c1 | 25.1 µM
C[C@H]1c2cccc(O)c2C(O)=C2C(=O)[C@]3(O)C(O)=C(C(N)=O)C(=O)[C@@H](N(C)C)[C@@H]3[C@@H](O)[C@@H]21 | 1.56 µM
CC[N+](C)(CC)CCC[n+]1c(-c2ccccc2)c2cc(N)ccc2c2ccc(N)cc21 | 128 µM
Cc1cc(NC2CCCCC2)nc(NCc2ccccc2)n1 | 36.1 µM
OCCN1CCN(C2CCC(c3ccc(F)cc3)c3ccc(F)cc32)CC1 (stereo not drawn) | 15.9 µM
Cc1cc(OCCCCCN2CCCC2)ccc1Cl | 51 µM
Cc1occc1C(=O)N/N=C/C=C/c1ccccc1 | 97.1 µM
Nc1ncncc1-c1ccc([N+](=O)[O-])cc1 | 43.9 µM
O=C(N/N=C/c1ccccc1O)c1ccncc1 | 20.5 µM
N=c1n(CC(=O)c2ccc(Br)s2)c2ccccc2n1Cc1ccccc1 | 27.3 µM
Nc1ncn(C2O[C@H](CO)[C@@H](O)[C@H]2O)c(=O)n1 (stereo partly drawn) | 35.2 µM
Cc1nc2c(=O)n(C)c(=O)nc-2n(C)n1 | 2.32 µM
COc1ccc(/C=C/C(=O)NC(=S)NNC(=O)c2cnccn2)cc1 | 30.6 µM
CCc1cccc2c(C(=O)COC(=O)c3ccc([N+](=O)[O-])s3)c[nH]c12 | 18.7 µM

Compound | IC50
O=C(C[n+]1cnn(CC(=O)c2ccc(Cl)cc2Cl)c1)c1ccc([N+](=O)[O-])cc1 | 36.1 µM
Nc1nnnn1/N=C/c1cc([N+](=O)[O-])ccc1O | 52.1 µM
CC[C@H]1OC(=O)[C@H](C)[C@@H](O[C@H]2C[C@@](C)(OC)[C@@H](O)[C@H](C)O2)[C@H](C)[C@@H](O[C@@H]2O[C@H](C)C[C@H](N(C)C)[C@H]2O)[C@](C)(O)C[C@@H](C)CN(C)[C@H](C)[C@@H](O)[C@]1(C)O | 1.28 µM
CN(C)CCCNC(=O)c1ccc(-c2nc(-c3ccc(Cl)cc3)cs2)cc1 | 19.7 µM
O=C(N/N=C/c1cc(Cl)cc([N+](=O)[O-])c1O)C1CC1 | 98 µM
CCN1/C(=C/c2cc[n+](C)cc2)C=Cc2cc(C)ccc21 | 39.4 µM
CCCC(=O)NC(c1ccco1)c1cc([N+](=O)[O-])c2cccnc2c1O (stereo not drawn) | 25.4 µM
Cc1c(CCOC(=O)C2C3CC4CC(C3)CC2C4)sc[n+]1CC(=O)c1ccc(Br)cc1 (stereo not drawn) | 25.7 µM
O=[N+]([O-])c1cc(CN2CCN(c3cccc(C(F)(F)F)c3)CC2)c2cccnc2c1O | 23.1 µM
O=C(C[n+]1cc(-c2ccc(Cl)c(Cl)c2)n2c1CCC2)N1c2ccccc2Sc2ccccc21 | 19.4 µM
Cc1ccc2c(c1)N/C(=C(\C=C(/Cl)[N+](=O)[O-])[N+](=O)[O-])N2 | 131 µM
Nc1nonc1-n1nnc(C(=O)N/N=C/c2ccccc2O)c1CN1CCCC1 | 112 µM
O=C(CSc1nc2ccccc2[nH]1)Nc1ccc(F)c(F)c1 | 74.2 µM
Cc1ccc2oc(=O)c(/C=C(\O)c3ccccc3)nc2c1 | 64.2 µM
CNCCCCOc1ccc(C(C)(C)C)cc1Cl | 58.2 µM
O=C(c1ccccc1)c1c2c(cc3sc4ccccc4[n+]13)-c1cccc3cccc-2c13 | 55.4 µM
CCn1cc(C(=O)O)c(=O)c2cc(F)c(N3CCN(C(=S)NC(=O)c4ccc(Br)cc4)CC3)cc21 | 56 µM
O=C1NCCCC1C(=O)N/N=C/c1cc([N+](=O)[O-])ccc1O (stereo not drawn) | 67.2 µM
CCCCCCCCCCOC(=O)Cn1c(COc2ccc(OC)cc2)[n+](C)c2ccccc21 | 12.1 µM and 10 µM
Cc1cc([N+](=O)[O-])cc(/C=N\NC(=O)C2COc3ccccc3O2)c1O (stereo not drawn) | 30.3 µM
COc1cc(CNCCO)cc(Cl)c1OCc1ccc(Cl)cc1Cl | 22.4 µM
Clc1cccc(CN2CCc3c([nH]c4ccccc34)C2)c1Cl | 136 µM
Cc1ccc(N=Cc2cc(Br)cc(Cl)c2O)cc1 | 47.1 µM

Compound | IC50
CN1CCCN(S(=O)(=O)c2ccc3ccccc3c2)CC1 | 46 µM
CN(C)c1ccc(/C=C/c2ccc3ccccc3[n+]2C)cc1 | 19.1 µM
CCc1cccc2c1Sc1ccccc1CC2N1CCNCC1 (stereo not drawn) | 39.3 µM
Cc1cc(C2N=C(N)Nc3nc4ccccc4n32)c(C)n1-c1ccccc1Cl (stereo not drawn) | 32.8 µM
CCCCCCCCCCCCCCCCn1cc[n+](C)c1 | 34.8 µM
CC1CCC(C(C)C)C(OC(=O)Cn2c(-c3ccc(Br)cc3)[n+](C)c3ccccc32)C1 (stereo not drawn) | 73.6 µM
CCC(C)(C)c1ccc(OCCCC[n+]2ccccc2)c(C(C)(C)CC)c1 | 35.3 µM
CN1CCC(=C2c3ccccc3C=Cc3ccccc32)CC1 | 77.5 µM
NC(N)=N/N=C/c1ccc(OCc2ccccc2Cl)cc1 | 39.5 µM
COc1ccc(C(=O)CCN2CCc3cc(OC)c(OC)cc3C2)cc1 | 120 µM
COc1cccc(Nc2nc(NCC3CCCO3)c3ccccc3n2)c1 (stereo not drawn) | 31.1 µM
C/C(=C\C(=O)OCCCCCCCCC(=O)O)C[C@@H]1OC[C@H](C[C@@H]2O[C@H]2[C@@H](C)[C@H](C)O)[C@@H](O)[C@H]1O | 38.4 µM
C/C(=N\Nc1ccc2nncn2n1)c1ccccn1 | 37.2 µM
CC(C)(C)/C(O)=C/c1nc2cc(Cl)ccc2oc1=O | 24.2 µM
CNCCCC1c2ccccc2C=Cc2ccccc21 | 67.1 µM
Cc1ccc2nc(N(CCCN(C)C)C(=O)c3ccc4c(c3)CCCC4)sc2c1 | 31.8 µM
CN(CCOc1ccc(Cl)cc1)CC(O)c1ccccc1 (stereo not drawn) | 126 µM
O=C(N/N=C/c1ccc(O)c(O)c1)C1c2ccccc2Oc2ccccc21 | 64.8 µM
CCN1CCN(C(=O)c2cc3cc(F)ccc3[nH]2)CC1 | 18.3 µM
COc1ccc(N2CC(C(=O)N/N=C/c3cc([N+](=O)[O-])ccc3O)CC2=O)cc1 (stereo not drawn) | 93.2 µM
COc1c2ccccc2nc2ccccc12 | 40.4 µM
O=C(/C=C/c1ccc(F)cc1)NC(=S)NNC(=O)c1cnccn1 | 19 µM
O=C(NC(CO)C(O)c1ccc([N+](=O)[O-])cc1)C(Cl)Cl (stereo not drawn) | 3.02 µM

Compound | IC50
CC1CCN(CCCCOc2ccc(Cl)cc2)CC1 | 136 µM
CCCCCCCCC1=NCCc2c1[nH]c1ccccc21 | 78.4 µM
O=c1[nH][nH]c(-c2ccccc2O)c1C(C[N+](=O)[O-])c1ccc(Br)cc1 (stereo not drawn) | 63 µM
CNC(=S)N1CCN(c2c(F)cc3c(=O)c(C(=O)O)cn(C4CC4)c3c2OC)CC1C (stereo not drawn) | 48.2 µM
O=C(CSC1=NC(=O)C(c2ccccc2)C(=O)N1)Nc1cccc(Cl)c1 (stereo not drawn) | 80.2 µM
Oc1cccc2ccc(Nc3ccccn3)nc12 | 7.38 µM
Cc1cc(C)n2nc(S(=O)(=O)Nc3c(Cl)cccc3Cl)nc2n1 | 49.7 µM
CC(C)N1CSC(=S)N(Cc2ccccc2)C1 | 49.4 µM
COC(=O)C1=C(C)N(Cc2ccccc2)C(=NCc2cccc(C(F)(F)F)c2)N[C@H]1c1cccc(F)c1 | 35.3 µM
O=C(/C=C/c1cc(Br)ccc1O)c1ccco1 | 52.5 µM
CN1CCN(C(c2ccc(Br)cc2)c2cc(Cl)c3cccnc3c2O)CC1 (stereo not drawn) | 35.4 µM
NC1=NC[C@H](c2ccccc2)N1CCCCC1CCCCC1 | 28.9 µM
CCCCn1c(NS(=O)(=O)c2ccccc2)c(S(=O)(=O)c2ccc(C)cc2)c2nc3ccccc3nc21 | 9.39 µM
CCn1cc(C(=O)NCCCN(C)C)c(=O)c2cc(F)c(N3CCN(C)CC3)cc21 | 96.4 µM
C#CCOCCOCCOCCNc1nc(N2CCN(C(=O)CCCCCCCCCCNC(=O)[C@H](CCCCN)n3cc(CCO)nn3)CC2)nc(N2CCN(C(=O)CCCCCCCCCCNC(=O)[C@H](CCCCN)n3cc(CCO)nn3)CC2)n1 | 36.3 µM
Cc1ccc(OCC(=O)N/N=C\c2c(C)[nH]n(-c3ccccc3)c2=O)c([N+](=O)[O-])c1 | 42.6 µM
Cc1cccc(NC2=NC3(CCCCC3)N=C(N)N2)c1 | 76.6 µM
CCCCNC1=CC(=O)C(=O)c2ccccc21 | 72.8 µM
CC(NCC(O)COc1ccc2ccccc2c1)c1ccccc1 (stereo not drawn) | 58.4 µM
COc1cc([N+](=O)[O-])cc(/C=N/NC(=O)C(C)Nc2cccc(C)c2)c1O (stereo not drawn) | 136 µM
CCn1cc(C(=O)O)c(=O)c2cc(F)c(N3CCN(C)CC3)cc21 | 1.23 µM
